From ChEMBL document CHEMBL6153030, “Design, synthesis, and biological evaluation of novel pleuromutilin derivatives with methicillin-resistant Staphylococcus aureus -targeting phenol linker groups” (Eur J Med Chem, 2025) come the findings set out here.

Converted amounts (≈) assume the structure as drawn. Where only a bound is given, the exact number is not on record here.

Broadly, the MIC is the lowest concentration that inhibits growth of the organism.

Common to all, as to format: functional
Test [1] concerns Staphylococcus aureus. Kind of test: Antibacterial activity against Staphylococcus aureus ATCC 29213 assessed as inhibition of bacterial growth incubated for 96 hrs by broth microdilution method. On the technique in general: Dilution methods test growth across graded concentrations, often in twofold steps.
Another test relates to Escherichia coli. Nature of the test: Antibacterial activity against Escherichia coli ATCC 25922 assessed as inhibition of bacterial growth incubated for 96 hrs by broth microdilution method.
The next test deals with Streptococcus pneumoniae. Nature of the test: Antibacterial activity against Streptococcus pneumoniae ATCC 49619 assessed as inhibition of bacterial growth incubated for 96 hrs by broth microdilution method.
In test [2] the test system is Staphylococcus aureus. Kind of test: Antibacterial activity against methicillin-resistant Staphylococcus aureus ATCC43300 assessed as inhibition of bacterial growth incubated for 96 hrs by broth microdilution method.
The subject of test [3] is Staphylococcus epidermidis. Nature of the test: Antibacterial activity against methicillin-resistant Staphylococcus epidermidis ATCC 51625 assessed as inhibition of bacterial growth incubated for 96 hrs by broth microdilution method.

Consider `C=C[C@]1(C)C[C@@H](OC(=O)CSc2ccccc2OCCCC)[C@]2(C)[C@H](C)CC[C@]3(CCC(=O)[C@H]32)[C@@H](C)[C@@H]1O`, for which the minimal inhibitory concentration (MIC) in the test on Staphylococcus aureus [1] is 0.5 µg/mL (≈ 0.921 µM); in the test on Escherichia coli it was more than 64 µg/mL; with Streptococcus pneumoniae, 0.5 µg/mL (≈ 0.921 µM); in the test with Staphylococcus aureus [2], 0.5 µg/mL (≈ 0.921 µM); in test [3], 0.25 µg/mL (≈ 0.461 µM).
As to `C=CCCOc1ccccc1SCC(=O)O[C@@H]1C[C@@](C)(C=C)[C@@H](O)[C@H](C)[C@]23CCC(=O)[C@H]2[C@@]1(C)[C@H](C)CC3`, the MIC is less than 0.031 µg/mL in the test on Staphylococcus aureus [1]; more than 64 µg/mL in the test with Escherichia coli; less than 0.031 µg/mL with Streptococcus pneumoniae; 0.125 µg/mL (≈ 0.231 µM) in the test on Staphylococcus aureus [2]; 0.031 µg/mL (≈ 0.0573 µM) in test [3].
In the case of `C=C[C@]1(C)C[C@@H](OC(=O)CSc2cccc(OCC#CC)c2)[C@]2(C)[C@H](C)CC[C@]3(CCC(=O)[C@H]32)[C@@H](C)[C@@H]1O`, the MIC was 0.125 µg/mL (≈ 0.232 µM) in the test with Staphylococcus aureus [1]; more than 64 µg/mL in the test on Escherichia coli; less than 0.031 µg/mL in the test with Streptococcus pneumoniae; 0.125 µg/mL (≈ 0.232 µM) with Staphylococcus aureus [2]; 0.125 µg/mL (≈ 0.232 µM) in test [3].
On to `C=C[C@]1(C)C[C@@H](OC(=O)CSc2ccc(O)cc2)[C@]2(C)[C@H](C)CC[C@]3(CCC(=O)[C@H]32)[C@@H](C)[C@@H]1O`, for which the MIC in the test on Staphylococcus aureus [1] is 0.062 µg/mL (≈ 0.127 µM); in the test on Escherichia coli it was more than 64 µg/mL; with Streptococcus pneumoniae, 0.125 µg/mL (≈ 0.257 µM); with Staphylococcus aureus [2], 0.062 µg/mL (≈ 0.127 µM); in test [3], 0.062 µg/mL (≈ 0.127 µM).
As to `C=C[C@]1(C)C[C@@H](OC(=O)CSc2cccc(OCc3ccc(-c4ccccc4C#N)cc3)c2)[C@]2(C)[C@H](C)CC[C@]3(CCC(=O)[C@H]32)[C@@H](C)[C@@H]1O`, the MIC in the test with Staphylococcus aureus [1] was 4 µg/mL (≈ 5.9 µM); with Escherichia coli, more than 64 µg/mL; with Streptococcus pneumoniae, 2 µg/mL (≈ 2.95 µM); with Staphylococcus aureus [2], 2 µg/mL (≈ 2.95 µM); in test [3], 8 µg/mL (≈ 11.8 µM).
As to `C=C[C@]1(C)C[C@@H](OC(=O)CSc2ccc(OCC(=O)N3CCS(=O)(=O)CC3)cc2)[C@]2(C)[C@H](C)CC[C@]3(CCC(=O)[C@H]32)[C@@H](C)[C@@H]1O`, the MIC with Staphylococcus aureus [1] is less than 0.031 µg/mL; in the test on Escherichia coli, more than 64 µg/mL; in the test with Streptococcus pneumoniae it was 0.25 µg/mL (≈ 0.378 µM); with Staphylococcus aureus [2], less than 0.031 µg/mL; in test [3], less than 0.031 µg/mL.
With `C=C[C@]1(C)C[C@@H](OC(=O)CSc2cccc(O)c2)[C@]2(C)[C@H](C)CC[C@]3(CCC(=O)[C@H]32)[C@@H](C)[C@@H]1O`, the MIC was 0.125 µg/mL (≈ 0.257 µM) with Staphylococcus aureus [1]; more than 64 µg/mL with Escherichia coli; 0.125 µg/mL (≈ 0.257 µM) in the test with Streptococcus pneumoniae; 0.062 µg/mL (≈ 0.127 µM) with Staphylococcus aureus [2]; 0.125 µg/mL (≈ 0.257 µM) in test [3].
In the case of `C=C[C@]1(C)C[C@@H](OC(=O)CSc2ccccc2OCc2ccc(C)cc2)[C@]2(C)[C@H](C)CC[C@]3(CCC(=O)[C@H]32)[C@@H](C)[C@@H]1O`, the minimal inhibitory concentration (MIC) in the test on Staphylococcus aureus [1] was 16 µg/mL (≈ 27.1 µM); in the test on Escherichia coli it was more than 64 µg/mL; in the test with Streptococcus pneumoniae, 16 µg/mL (≈ 27.1 µM); with Staphylococcus aureus [2], 32 µg/mL (≈ 54.2 µM); in test [3] it was 32 µg/mL (≈ 54.2 µM).
For the compound `C=C[C@]1(C)C[C@@H](OC(=O)CSc2ccc(OCc3ccc(C(=O)OC(C)(C)C)cc3)cc2)[C@]2(C)[C@H](C)CC[C@]3(CCC(=O)[C@H]32)[C@@H](C)[C@@H]1O`, the minimum inhibitory concentration (MIC) was 4 µg/mL (≈ 5.91 µM) in the test on Staphylococcus aureus [1]; more than 64 µg/mL in the test with Escherichia coli; 8 µg/mL (≈ 11.8 µM) in the test on Streptococcus pneumoniae; 32 µg/mL (≈ 47.3 µM) in the test on Staphylococcus aureus [2]; 8 µg/mL (≈ 11.8 µM) in test [3].
With `C=C[C@]1(C)C[C@@H](OC(=O)CSc2ccc(OCc3ccc(C)cc3)cc2)[C@]2(C)[C@H](C)CC[C@]3(CCC(=O)[C@H]32)[C@@H](C)[C@@H]1O`, the MIC with Staphylococcus aureus [1] was 16 µg/mL (≈ 27.1 µM); in the test with Escherichia coli, more than 64 µg/mL; with Streptococcus pneumoniae, 16 µg/mL (≈ 27.1 µM); in the test with Staphylococcus aureus [2], 16 µg/mL (≈ 27.1 µM); in test [3] it was 16 µg/mL (≈ 27.1 µM).
Take `C=C[C@]1(C)C[C@@H](OC(=O)CSc2cccc(OCc3ccc(C)cc3)c2)[C@]2(C)[C@H](C)CC[C@]3(CCC(=O)[C@H]32)[C@@H](C)[C@@H]1O`: the MIC in the test with Staphylococcus aureus [1] was 16 µg/mL (≈ 27.1 µM); in the test on Escherichia coli it was more than 64 µg/mL; in the test with Streptococcus pneumoniae, 16 µg/mL (≈ 27.1 µM); in the test on Staphylococcus aureus [2] it was 16 µg/mL (≈ 27.1 µM); in test [3], 32 µg/mL (≈ 54.2 µM).
For `C=CCCOc1cccc(SCC(=O)O[C@@H]2C[C@@](C)(C=C)[C@@H](O)[C@H](C)[C@]34CCC(=O)[C@H]3[C@@]2(C)[C@H](C)CC4)c1`, the MIC in the test on Staphylococcus aureus [1] is 0.5 µg/mL (≈ 0.925 µM); in the test on Escherichia coli it was more than 64 µg/mL; with Streptococcus pneumoniae it was 0.5 µg/mL (≈ 0.925 µM); with Staphylococcus aureus [2], 0.5 µg/mL (≈ 0.925 µM); in test [3], 0.25 µg/mL (≈ 0.462 µM).
Take `C=C[C@]1(C)C[C@@H](OC(=O)CSc2cccc(OCc3ccc(C(=O)OC(C)(C)C)cc3)c2)[C@]2(C)[C@H](C)CC[C@]3(CCC(=O)[C@H]32)[C@@H](C)[C@@H]1O`: the minimal inhibitory concentration (MIC) was 4 µg/mL (≈ 5.91 µM) in the test on Staphylococcus aureus [1]; more than 64 µg/mL with Escherichia coli; 8 µg/mL (≈ 11.8 µM) in the test with Streptococcus pneumoniae; 32 µg/mL (≈ 47.3 µM) in the test on Staphylococcus aureus [2]; 8 µg/mL (≈ 11.8 µM) in test [3].
Consider `C=C[C@]1(C)C[C@@H](OC(=O)CSc2ccc(OCc3ccc(-c4ccccc4C#N)cc3)cc2)[C@]2(C)[C@H](C)CC[C@]3(CCC(=O)[C@H]32)[C@@H](C)[C@@H]1O`, for which the MIC with Staphylococcus aureus [1] is 4 µg/mL (≈ 5.9 µM); with Escherichia coli it was more than 64 µg/mL; with Streptococcus pneumoniae, 2 µg/mL (≈ 2.95 µM); in the test on Staphylococcus aureus [2], 2 µg/mL (≈ 2.95 µM); in test [3], 4 µg/mL (≈ 5.9 µM).
In the case of `C=C[C@]1(C)C[C@@H](OC(=O)CSc2ccc(OCC#CC)cc2)[C@]2(C)[C@H](C)CC[C@]3(CCC(=O)[C@H]32)[C@@H](C)[C@@H]1O`, the MIC is 0.25 µg/mL (≈ 0.464 µM) in the test on Staphylococcus aureus [1]; more than 64 µg/mL with Escherichia coli; 0.062 µg/mL (≈ 0.115 µM) in the test with Streptococcus pneumoniae; 0.25 µg/mL (≈ 0.464 µM) with Staphylococcus aureus [2]; 0.125 µg/mL (≈ 0.232 µM) in test [3].
For `C=C[C@]1(C)C[C@@H](OC(=O)CSc2cccc(OCCCC)c2)[C@]2(C)[C@H](C)CC[C@]3(CCC(=O)[C@H]32)[C@@H](C)[C@@H]1O`, the MIC was 2 µg/mL (≈ 3.68 µM) in the test on Staphylococcus aureus [1]; more than 64 µg/mL in the test with Escherichia coli; 2 µg/mL (≈ 3.68 µM) in the test with Streptococcus pneumoniae; 2 µg/mL (≈ 3.68 µM) in the test on Staphylococcus aureus [2]; 1 µg/mL (≈ 1.84 µM) in test [3].
`C=C[C@]1(C)C[C@@H](OC(=O)CSc2ccccc2O)[C@]2(C)[C@H](C)CC[C@]3(CCC(=O)[C@H]32)[C@@H](C)[C@@H]1O`: the MIC in the test on Staphylococcus aureus [1] was 0.125 µg/mL (≈ 0.257 µM); in the test with Escherichia coli it was more than 64 µg/mL; in the test with Streptococcus pneumoniae, 0.125 µg/mL (≈ 0.257 µM); with Staphylococcus aureus [2], 0.125 µg/mL (≈ 0.257 µM); in test [3], 0.125 µg/mL (≈ 0.257 µM).
For `C=C[C@]1(C)C[C@@H](OC(=O)CSc2ccccc2OCc2ccc(C(=O)OC(C)(C)C)cc2)[C@]2(C)[C@H](C)CC[C@]3(CCC(=O)[C@H]32)[C@@H](C)[C@@H]1O`, the MIC was 16 µg/mL (≈ 23.6 µM) with Staphylococcus aureus [1]; more than 64 µg/mL with Escherichia coli; 16 µg/mL (≈ 23.6 µM) in the test on Streptococcus pneumoniae; 32 µg/mL (≈ 47.3 µM) with Staphylococcus aureus [2]; 16 µg/mL (≈ 23.6 µM) in test [3].
For `C=C[C@]1(C)C[C@@H](OC(=O)CSc2ccccc2OCc2ccc(-c3ccccc3C#N)cc2)[C@]2(C)[C@H](C)CC[C@]3(CCC(=O)[C@H]32)[C@@H](C)[C@@H]1O`, the MIC in the test on Staphylococcus aureus [1] was 2 µg/mL (≈ 2.95 µM); in the test on Escherichia coli, more than 64 µg/mL; in the test on Streptococcus pneumoniae, 2 µg/mL (≈ 2.95 µM); with Staphylococcus aureus [2], 2 µg/mL (≈ 2.95 µM); in test [3], 4 µg/mL (≈ 5.9 µM).
For `C=CCCOc1ccc(SCC(=O)O[C@@H]2C[C@@](C)(C=C)[C@@H](O)[C@H](C)[C@]34CCC(=O)[C@H]3[C@@]2(C)[C@H](C)CC4)cc1`, the MIC with Staphylococcus aureus [1] is 0.25 µg/mL (≈ 0.462 µM); in the test on Escherichia coli it was more than 64 µg/mL; in the test on Streptococcus pneumoniae, 0.125 µg/mL (≈ 0.231 µM); with Staphylococcus aureus [2] it was 0.25 µg/mL (≈ 0.462 µM); in test [3], 0.125 µg/mL (≈ 0.231 µM).
As to `C=C[C@]1(C)C[C@@H](OC(=O)CSc2ccc(OCCCC)cc2)[C@]2(C)[C@H](C)CC[C@]3(CCC(=O)[C@H]32)[C@@H](C)[C@@H]1O`, the MIC in the test with Staphylococcus aureus [1] was 2 µg/mL (≈ 3.68 µM); with Escherichia coli, more than 64 µg/mL; in the test with Streptococcus pneumoniae, 0.5 µg/mL (≈ 0.921 µM); in the test with Staphylococcus aureus [2], 1 µg/mL (≈ 1.84 µM); in test [3], 0.5 µg/mL (≈ 0.921 µM).
On to `C=C[C@]1(C)C[C@@H](OC(=O)CSc2ccccc2OCC#CC)[C@]2(C)[C@H](C)CC[C@]3(CCC(=O)[C@H]32)[C@@H](C)[C@@H]1O`, for which the MIC was 0.125 µg/mL (≈ 0.232 µM) in the test on Staphylococcus aureus [1]; more than 64 µg/mL in the test on Escherichia coli; less than 0.031 µg/mL with Streptococcus pneumoniae; 0.125 µg/mL (≈ 0.232 µM) with Staphylococcus aureus [2]; 0.125 µg/mL (≈ 0.232 µM) in test [3].
